From patent publication US20160297761A1, “NOVEL INHIBITORS OF GLUTAMINASE” (RHIZEN PHARMACEUTICALS SA, priority 2014, published 2016)
Where a name gives a salt, the structure may show the parent alone. Read-outs that look alike come from different tables or passages of the source.

Target: T1, L-glutaminase present in mice brain homogenate (Glutaminase(Brain)) (Mus musculus, UniProt D3Z7P3)
T1 sequence (D3Z7P3 55-674): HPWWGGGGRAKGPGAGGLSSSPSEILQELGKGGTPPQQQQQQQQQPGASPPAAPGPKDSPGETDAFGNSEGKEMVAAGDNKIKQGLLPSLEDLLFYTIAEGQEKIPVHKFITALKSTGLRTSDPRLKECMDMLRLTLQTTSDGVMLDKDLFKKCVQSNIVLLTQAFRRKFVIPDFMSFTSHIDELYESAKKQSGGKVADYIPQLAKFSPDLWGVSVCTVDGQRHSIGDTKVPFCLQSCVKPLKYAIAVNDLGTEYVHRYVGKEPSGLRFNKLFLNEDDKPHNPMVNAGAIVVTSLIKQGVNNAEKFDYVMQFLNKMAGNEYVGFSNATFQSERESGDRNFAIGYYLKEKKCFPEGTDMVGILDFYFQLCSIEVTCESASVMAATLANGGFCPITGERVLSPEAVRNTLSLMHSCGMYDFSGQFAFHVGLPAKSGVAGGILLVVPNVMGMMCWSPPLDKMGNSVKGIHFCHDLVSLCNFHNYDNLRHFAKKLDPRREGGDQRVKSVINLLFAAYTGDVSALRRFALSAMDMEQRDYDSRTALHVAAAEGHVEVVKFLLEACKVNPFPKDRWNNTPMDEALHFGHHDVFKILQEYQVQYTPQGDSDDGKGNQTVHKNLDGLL
Experiment: Glutaminase enzyme activity using glutaminase enzyme from mice brain/kidney homogenate (Nessler's reagent, ammonia)
Format: biochemical
Settings: for inhibition at 0.1 µM: read-out: Glutaminase(Brain) activity % inhibition 0.1 μM; for inhibition at 1 µM: read-out: Glutaminase(Brain) activity % inhibition @1 μM
Experimental: Assay 3: Determination of Glutaminase Enzyme Activity Using Glutaminase
Enzyme from Mice Brain/Kidney
Step 1: Preparation of Tissue Homogenates: Male Balb/c mice were administered 0.28 M ammonium chloride in drinking water for 7 days. The animals were sacrificed and brain/kidney organs collected on dry ice. […] The tissue was homogenized and supernatants were stored at −80° C. until the enzyme assay was performed.
Aim: Compounds were assessed for their ability to inhibit the enzymatic activity of L-glutaminase present in mice brain/kidney homogenate.
Protocol: The assay was performed using a colorimetric method using Nessler's Reagent by quantifying the amount of ammonia formed as a by product during the enzymatic conversion of L-glutamine to glutamate. In the routine assay, 16 μl of tissue homogenate is added to 33 μl of Tris-Hcl phosphate buffer (pH 8) along with 1 μl of DMSO/test compound containing the desired final concentration and vortexed briefly. 50 μl of 20 mM L-glutamine Tris buffer is added to start the reaction and incubated for 15 minutes at 37° C. The ammonia formed is detected by adding 20 μl of reaction mixture to cold water in a 96 well plate followed by 20 μl of Nessler's reagent. The colour developed is measured at 450 nm. Data Analysis: Activity of the test compound is reported as % inhibition and the data is analyzed using Graphpad Prism (Graphpad software; San Diego Calif.) for IC50 determination.

Row | inhibition at 0.1 µM (0.1 μM, mice brain homogenate) | inhibition at 1 µM (1 μM, mice brain homogenate) | SMILES | inhibition at 0.1 µM | inhibition at 1 µM
1 | 25 to 50% | 75 to 100% | COc1ccccc1CC(=O)Nc1nnc(CCC#Cc2ccc(NC(=O)Cc3ccccc3Cl)nc2)s1 [Example 1, 2-(2-Chlorophenyl)-N-{5-[4-(5-(2-(2-methoxyphenyl)acetamido)-1,3,4-thiadiazol-2-yl)but-1-ynyl]pyridin-2-yl}acetamide] |  | 
2 | 50 to 75% | 75 to 100% | COc1ccccc1CC(=O)Nc1nnc(CCCCc2ccc(NC(=O)Cc3ccccc3Cl)nc2)s1 [Example 2, 2-(2-Chlorophenyl)-N-{5-[4-(5-(2-(2-methoxyphenyl)acetamido)-1,3,4-thiadiazol-2-yl)butyl]pyridin-2-yl}acetamide] |  | 
3 | < 25% |  | O=C(Cc1cccc(OC(F)(F)F)c1)Nc1ccc(CCCCc2nnc(NC(=O)Cc3ccccn3)s2)nc1 [Example-4, 2-(Pyridin-2-yl)-N-(5-(4-(5-(2-(3-(trifluoromethoxy)phenyl)acetamido)pyridin-2-yl)butyl)-1,3,4-thiadiazol-2-yl)acetamide] |  | 
4 | < 25% | < 25% | O=C(Cc1cccc(OC(F)(F)F)c1)Nc1ccc(CCCCc2nnc(NC(=O)Cc3cccnc3)s2)nc1 [Example-5, 2-(Pyridin-3-yl)-N-(5-(4-(5-(2-(3-(trifluoromethoxy)phenyl)acetamido)pyridin-2-yl)butyl)-1,3,4-thiadiazol-2-yl)acetamide] |  | 
5 |  |  | O=C(Cc1cccc(OC(F)(F)F)c1)Nc1cnc(CCCCc2nnc(NC(=O)Cc3ccccn3)s2)cn1 [Example-6, 2-(Pyridin-2-yl)-N-(5-(4-(5-(2-(3-(trifluoromethoxy)phenyl)acetamido)pyrazin-2-yl)butyl)-1,3,4-thiadiazol-2-yl)acetamide] | < 25% | 25 to 50%
6 | < 25% | 25 to 50% | O=C(Cc1cccc(OC(F)(F)F)c1)Nc1ncc(CCCCc2nnc(NC(=O)Cc3ccccn3)s2)cn1 [Example-7, 2-(Pyridin-2-yl)-N-(5-(4-(2-(2-(3-(trifluoromethoxy)phenyl)acetamido)pyrimidin-5-yl)butyl)-1,3,4-thiadiazol-2-yl)acetamide] |  | 
7 | 75 to 100% | 75 to 100% | O=C(Cc1cccnc1)Nc1ccc(CCCCc2nnc(NC(=O)Cc3ccccc3Cl)s2)cn1 [Example-12, 2-(2-Chlorophenyl)-N-(5-(4-(6-(2-(pyridin-3-yl)acetamido)pyridin-3-yl)butyl)-1,3,4-thiadiazol-2-yl) acetamide] |  | 
8 | 75 to 100% | 75 to 100% | CS(=O)(=O)c1cccc(CC(=O)Nc2nnc(CCCCc3ccc(NC(=O)Cc4cccnc4)nc3)s2)c1 [Example-13, 2-(3-(Methylsulfonyl)phenyl)-N-(5-(4-(6-(2-(pyridin-3-yl)acetamido)pyridin-3-yl)butyl)-1,3,4-thiadiazol-2-yl)acetamide] |  | 
9 | 75 to 100% | 75 to 100% | CS(=O)(=O)c1ccc(CC(=O)Nc2nnc(CCCCc3ccc(NC(=O)Cc4cccnc4)nc3)s2)cc1 [Example-14, 2-(4-(Methylsulfonyl)phenyl)-N-(5-(4-(6-(2-(pyridin-3-yl)acetamido)pyridin-3-yl)butyl)-1,3,4-thiadiazol-2-yl)acetamide] |  | 
10 | 50 to 75% | 75 to 100% | O=C(Cc1cccnc1)Nc1ccc(CCCCc2nnc(NC(=O)Cc3cccnc3)s2)cn1 [Example-15, 2-(Pyridin-3-yl)-N-(5-(4-(5-(2-(pyridin-3-yl)acetamido)-1,3,4-thiadiazol-2-yl)butyl)pyridin-2-yl)acetamide] |  | 
11 | 50 to 75% | 75 to 100% | O=C(Cc1cccnc1)Nc1ccc(CCCCc2nnc(NC(=O)Cc3ccccc3F)s2)cn1 [Example-19, 2-(2-Fluorophenyl)-N-(5-(4-(6-(2-(pyridin-3-yl)acetamido)pyridin-3-yl)butyl)-1,3,4-thiadiazol-2-yl)acetamide] |  | 
12 | < 25% | 50 to 75% | O=C(Cc1ccccc1Cl)Nc1ccc(CCCCc2nnc(NC(=O)Cc3ccccn3)s2)cn1 [Example-25, 2-(2-Chlorophenyl)-N-(5-(4-(5-(2-(pyridin-2-yl)acetamido)-1,3,4-thiadiazol-2-yl)butyl)pyridin-2-yl)acetamide] |  | 
13 | 50 to 75% | 75 to 100% | O=C(Cc1ccccc1Cl)Nc1ccc(CCCCc2nnc(NC(=O)Cc3cccnc3)s2)cn1 [Example-26, 2-(2-Chlorophenyl)-N-(5-(4-(5-(2-(pyridin-3-yl)acetamido)-1,3,4-thiadiazol-2-yl)butyl)pyridin-2-yl)acetamide] |  | 
14 | < 25% | 25 to 50% | CC(C)(C)OC(=O)N1CCC(c2ccc(CC(=O)Nc3nnc(CCCCc4ccc(NC(=O)Cc5cccc(OC(F)(F)F)c5)nc4)s3)cc2)CC1 [Example-33, Tert-butyl 4-(4-(2-oxo-2-(5-(4-(6-(2-(3-(trifluoromethoxy)phenyl)acetamido)pyridin-3-yl)butyl)-1,3,4-thiadiazol-2-ylamino)ethyl)phenyl)piperidine-1-carboxylate] |  | 
15 |  |  | O=C(Cc1cccc(OC(F)(F)F)c1)Nc1ccc(CCCCc2nnc(NC(=O)Cc3ccc(C4CCNCC4)cc3)s2)cn1 [Example-34, 2-(4-(Piperidin-4-yl)phenyl)-N-(5-(4-(6-(2-(3-(trifluoromethoxy)phenyl)acetamido)pyridin-3-yl)butyl)-1,3,4-thiadiazol-2-yl)acetamide hydrochloride] | < 25% | 25 to 50%
16 | < 25% | < 25% | O=C(Cc1cccc(OC(F)(F)F)c1)Nc1ccc(CCCCc2nnc(NC(=O)Cn3nc(C(F)(F)F)cc3C(F)(F)F)s2)cn1 [Example-35, 2-(3,5-Bis(trifluoromethyl)-1H-pyrazol-1-yl)-N-(5-(4-(6-(2-(3-(trifluoromethoxy)phenyl)acetamido)pyridin-3-yl)butyl)-1,3,4-thiadiazol-2-yl)acetamide] |  | 
17 |  |  | O=C(Cc1cccc(OC(F)(F)F)c1)Nc1ccc(CCCCc2nnc(NC(=O)Cc3cccc(C4CCNCC4)c3)s2)cn1 [Example-36, 2-(3-(Piperidin-4-yl)phenyl)-N-(5-(4-(6-(2-(3-(trifluoromethoxy)phenyl)acetamido)pyridin-3-yl)butyl)-1,3,4-thiadiazol-2-yl)acetamide hydrochloride] | 25 to 50% | 25 to 50%
18 | 25 to 50% | 75 to 100% | CS(=O)(=O)Nc1cccc(CC(=O)Nc2nnc(CCCCc3ccc(NC(=O)Cc4cccc(OC(F)(F)F)c4)nc3F)s2)c1 [Example-39, N-(6-Fluoro-5-(4-(5-(2-(3-(methylsulfonamido)phenyl)acetamido)-1,3,4-thiadiazol-2-yl)butyl)pyridin-2-yl)-2-(3-(trifluoromethoxy)phenyl)acetamide] |  | 
19 | < 25% | 25 to 50% | O=C(Cc1ccccn1)Nc1nnc(CC2CCC(Cc3nnc(NC(=O)Cc4ccccn4)s3)CC2)s1 (stereo not drawn) [Example-106, N,N′-(5, 5′-(Cyclohexane-1,4-diylbis(methylene))bis(1,3,4-thiadiazole-5,2-diyl))bis(2-(pyridin-2-yl)acetamide)] |  | 
20 |  |  | O=C(Cc1cccc(OC(F)(F)F)c1)Nc1ccc(CC2CC(c3nnc(NC(=O)Cc4ccccn4)s3)C2)nn1 (stereo not drawn) [Example-110, 2-(Pyridin-2-yl)-N-(5-(3-((6-(2-(3-(trifluoromethoxy)phenyl)acetamido)pyridazin-3-yl)methyl)cyclobutyl)-1,3,4-thiadiazol-2-yl)acetamide] | 75 to 100% | 75 to 100%
